Data as given in the NIST ThermoML archive (doi:10.1021/acs.jced.9b00286).
Numbers after ± are expanded uncertainties.

Conditions: Crystal; DSC

Compound: OCc1ccc(O[C@@H]2O[C@H](CO)[C@@H](O)[C@H](O)[C@H]2O)cc1 [gastrodin]
- Triple point temperature: 429.75 ± 1.2 K
